Values quoted from earlier work as cited in US20080187998A1, “Sulfonamide-based oligomers and polymers for destabilization of biological membranes” (UNIVERSITY OF UTAH RESEARCH FOUNDATION, priority 2007, published 2008).

Conditions: monomeric sulfonamide

## COc1cc(NS(=O)(=O)c2ccc(N)cc2)nc(OC)n1 [SDM, sulfadimethoxine]
  pKa: 6.1

## Nc1ccc(S(=O)(=O)Nc2ncccn2)cc1 [SDZ, sulfadiazine]
  pKa: 6.4-6.5

## Cc1nnc(NS(=O)(=O)c2ccc(N)cc2)s1 [SMT, sulfamethizole]
  pKa: 5.45

## Cc1ccnc(NS(=O)(=O)c2ccc(N)cc2)n1 [sulfamerazine]
  pKa: 7.0
